Results taken from patent EP3436445B1, “HISTONE DEMETHYLASE INHIBITORS” (Celgene Quanticel Research, Inc., priority 2016, dated 2017).

Target: T1, FBXL10 (Homo sapiens, UniProt Q8NHM5)
T1 construct: purchased BPS Bioscience 50120
T1 sequence (Q8NHM5 1-650): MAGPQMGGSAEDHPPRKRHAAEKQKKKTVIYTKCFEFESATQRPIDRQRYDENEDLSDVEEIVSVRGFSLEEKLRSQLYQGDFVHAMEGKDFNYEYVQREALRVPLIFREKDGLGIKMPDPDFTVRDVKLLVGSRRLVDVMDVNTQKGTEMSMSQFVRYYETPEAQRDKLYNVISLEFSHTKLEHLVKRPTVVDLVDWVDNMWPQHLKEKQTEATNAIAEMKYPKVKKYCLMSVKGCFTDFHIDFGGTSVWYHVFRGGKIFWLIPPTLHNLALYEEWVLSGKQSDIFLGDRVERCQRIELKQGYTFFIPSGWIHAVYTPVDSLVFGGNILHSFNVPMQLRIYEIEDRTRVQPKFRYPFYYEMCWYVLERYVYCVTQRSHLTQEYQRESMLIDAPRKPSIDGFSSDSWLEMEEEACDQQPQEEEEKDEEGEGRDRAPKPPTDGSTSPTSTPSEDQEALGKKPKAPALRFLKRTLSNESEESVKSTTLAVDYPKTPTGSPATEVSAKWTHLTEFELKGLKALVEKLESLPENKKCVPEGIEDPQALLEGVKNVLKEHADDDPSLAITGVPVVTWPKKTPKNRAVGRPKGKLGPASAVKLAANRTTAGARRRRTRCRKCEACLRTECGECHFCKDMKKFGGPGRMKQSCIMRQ
Assay: FBXL10 in vitro enzyme inhibition assay (AlphaScreen)
Assay type: biochemical
Text: This assay determines the ability of a test compound to inhibit FBXL11, FBXL10, and PHF8 demethylase activity. Baculovirus expressed FBXL11 (GenBank Accession #NM_012308, AA1-1162) was purchased from BPS Bioscience (Cat#50102). Baculovirus expressed FBXL10 (GenBank Accession #NM_032590, AA 1-650) was purchased from BPS Bioscience (Cat #50120). Baculovirus expressed PHF8 (GenBank Accession NP_055922.1) was purchased from Active Motif (Cat#31435).
The ability of test compounds to inhibit the activity of FBXL10 was determined in 384-well plate format under the following reaction conditions: 0.3 nM FBXL10, 30 nM H3K36me2-biotin labeled peptide (Anaspec cat # 64442), 0.2 µM alpha-ketoglutaric acid in assay buffer of 50 mM HEPES, pH7.3, 0.005% Brij35, 0.5 mM TCEP, 0.2 mg/ml BSA, 50 µM sodium L-ascorbate, 5 µM ammonium iron(II) sulfate. Reaction product is determined quantitatively by AlphaScreen detection after the addition of detection reagents anti-H3K36me1 antibody, AlphaScreen® Streptavidin-coated Donor beads, and AlphaScreen® Protein A Acceptor beads in 50 mM HEPES, pH7.3, 10 mM NaCl, 0.005% Brij35, 5 mM EDTA, 2 mg/ml BSA to final 10 µg/ml beads.
The assay reaction was initiated by the following: 3 µl of the mixture of 90 nM H3K36me2-biotin labeled peptide and 0.6 µM alpha-ketoglutaric acid with 3 µl of 11-point serial diluted inhibitor in 3% DMSO are added to each well of 384 well Proxiplate (Perkin Elmer), followed by the addition of 3 µl of 0.9 nM FBXL10 to initiate the reaction. The reaction mixture is incubated at room temperature for 1 hour, and terminated by the addition of 3 µl of appropriate dilution of anti H3K36me1 antibody in 50 mM HEPES, pH7.3, 10 mM NaCl, 0.005% Brij35, 5 mM EDTA, 2 mg/ml BSA. Plates will then incubated at room temperature for 40 minutes, followed by addition of 3 µl of 50 µg/ml AlphaScreen® Streptavidin-coated Donor beads and AlphaScreen® Protein A Acceptor beads in 50 mM HEPES, pH7.3, 10 mM NaCl, 0.005% Brij35, 5 mM EDTA, 2 mg/ml BSA. Plates will then be read by EnVision Multilabel Reader in AlphaScreen mode after minimum 2 hour incubation at room temperature. The AlphaScreen signal for each well is used to determine inhibition constant (IC50).

[1] = Table 3, 0.3 nM FBXL10, H3K36me2-biotin labeled peptide

Structure (SMILES): FC(F)(F)c1[nH]nnc1-c1ccnc(-c2cn(Cc3ccccc3Cl)cn2)c1 [Example 64, 2-{1-[(2-chlorophenyl)methyl]-1H-imidazol-4-yl}-4-[5-(trifluoromethyl)-1H-1,2,3-triazol-4-yl]pyridine]
- IC50 (Table 5): ≤ 100 nM

Structure (SMILES): O=C(c1ccccc1)N1CCC[C@@H](n2cnc(-c3cc(-c4nn[nH]c4C(F)(F)F)ccn3)c2)C1 [Example 89, 2-{1-[(3R)-1-benzoylpiperidin-3-yl]-1H-imidazol-4-yl}-4-[5-(trifluoromethyl)-1H-1,2,3-triazol-4-yl]pyridine]
- IC50 (Table 5): ≤ 100 nM

Structure (SMILES): Fc1ccc(F)c(CCn2cnc(-c3cc(-c4nn[nH]c4C(F)(F)F)ccn3)c2)c1 [Example 88, 2-{1-[2-(2,5-difluorophenyl)ethyl]-1H-imidazol-4-yl}-4-[5-(trifluoromethyl)-1H-1,2,3-triazol-4-yl]pyridine]
- IC50 (Table 5): ≤ 100 nM

Structure (SMILES): Fc1ccccc1CCn1cnc(-c2cc(-c3nn[nH]c3C(F)(F)F)ccn2)c1 [Example 84, 2-{1-[2-(2-fluorophenyl)ethyl]-1H-imidazol-4-yl}-4-[5-(trifluoromethyl)-1H-1,2,3-triazol-4-yl]pyridine]
- IC50 (Table 5): ≤ 100 nM

Structure (SMILES): Clc1cccc(Cn2cnc(-c3cc4[nH]nnc4cn3)c2)c1 [Example 46, 1-[(3-chlorophenyl)methyl]-4-{1H-[1,2,3]triazolo[4,5-c]pyridin-6-yl}-1H-imidazole]
- IC50 [1]: ≤ 100 nM

Structure (SMILES): Fc1ccc(Cn2cnc(-c3cc(-c4nn[nH]c4C(F)(F)F)ccn3)c2)c(F)c1 [Example 68, 2-{1-[(2,4-difluorophenyl)methyl]-1H-imidazol-4-yl}-4-[5-(trifluoromethyl)-1H-1,2,3-triazol-4-yl]pyridine]
- IC50 (Table 5): ≤ 100 nM

Structure (SMILES): Clc1ccc(Cn2cnc(-c3cc4[nH]nnc4cn3)c2)cc1 [Example 47, 1-[(4-chlorophenyl)methyl]-4-{1H-[1,2,3]triazolo[4,5-c]pyridin-6-yl}-1H-imidazole]
- IC50 [1]: ≤ 100 nM

Structure (SMILES): FC(F)(F)c1[nH]nnc1-c1ccnc(-c2cn(CC3CCc4ccccc43)cn2)c1 (stereo not drawn) [Example 83, 2-{1-[(2,3-dihydro-1H-inden-1-yl)methyl]-1H-imidazol-4-yl}-4-[5-(trifluoromethyl)-1H-1,2,3-triazol-4-yl]pyridine]
- IC50 (Table 5): 100 to 1000 nM

Structure (SMILES): COc1cccc2c1C(Cn1cnc(-c3cc(-c4nn[nH]c4C(F)(F)F)ccn3)c1)CCC2 (stereo not drawn) [Example 107, 2-{1-[(8-methoxy-1,2,3,4-tetrahydronaphthalen-1-yl)methyl]-1H-imidazol-4-yl}-4-[5-(trifluoromethyl)-1H-1,2,3-triazol-4-yl]pyridine]
- IC50 (Table 5): 100 to 1000 nM

Structure (SMILES): FC(F)(F)c1[nH]nnc1-c1ccnc(-c2cn(CCc3ccccc3Cl)cn2)c1 [Example 57]
- IC50 (Table 5): ≤ 100 nM

Structure (SMILES): FC(F)(F)c1ccccc1CCn1cnc(-c2cc(-c3nn[nH]c3C(F)(F)F)ccn2)c1 [Example 60, 4-[5-(trifluoromethyl)-1H-1,2,3-triazol-4-yl]-2-(1-{2-[2-(trifluoromethyl)phenyl]ethyl}-1H-imidazol-4-yl)pyridine]
- IC50 (Table 5): 100 to 1000 nM

Structure (SMILES): Cn1cnc(-c2cc(-c3nn[nH]c3C(F)(F)F)ccn2)c1-c1ccc(F)cc1 [Example 97, 2-[5-(4-fluorophenyl)-1-methyl-1H-imidazol-4-yl]-4-[5-(trifluoromethyl)-1H-1,2,3-triazol-4-yl]pyridine]
- IC50 (Table 5): ≤ 100 nM

Structure (SMILES): CCOc1ccccc1CCn1cnc(-c2cc(-c3nn[nH]c3C(F)(F)F)ccn2)c1 [Example 59]
- IC50 (Table 5): 100 to 1000 nM

Structure (SMILES): Fc1ccc(Cn2cnc(-c3cc(-c4nn[nH]c4C(F)(F)F)ccn3)c2)cc1 [Example 61, 2-{1-[(4-fluorophenyl)methyl]-1H-imidazol-4-yl}-4-[5-(trifluoromethyl)-1H-1,2,3-triazol-4-yl]pyridine]
- IC50 (Table 5): ≤ 100 nM

Structure (SMILES): Cc1ccc2c(c1)C(Cn1cnc(-c3cc(-c4nn[nH]c4C(F)(F)F)ccn3)c1)CCC2 (stereo not drawn) [Example 103, 2-{1-[(7-methyl-1,2,3,4-tetrahydronaphthalen-1-yl)methyl]-1H-imidazol-4-yl}-4-[5-(trifluoromethyl)-1H-1,2,3-triazol-4-yl]pyridine]
- IC50 (Table 5): 100 to 1000 nM

Structure (SMILES): Fc1cc(F)c(CCn2cnc(-c3cc(-c4nn[nH]c4C(F)(F)F)ccn3)c2)cc1F [Example 81, 4-[5-(trifluoromethyl)-1H-1,2,3-triazol-4-yl]-2-{1-[2-(2,4,5-trifluorophenyl)ethyl]-1H-imidazol-4-yl}pyridine]
- IC50 (Table 5): ≤ 100 nM

Structure (SMILES): Clc1ccc(-n2cnc(-c3cc4[nH]nnc4cn3)c2)cc1 [Example 49, 1-(4-chlorophenyl)-4-{1H-[1,2,3]triazolo[4,5-c]pyridin-6-yl}-1H-imidazole]
- IC50 [1]: ≤ 100 nM

Structure (SMILES): CC(C)(C)c1ccc(CCn2cnc(-c3cc(-c4nn[nH]c4C(F)(F)F)ccn3)c2)cc1 [Example 96, 2-{1-[2-(4-tert-butylphenyl)ethyl]-1H-imidazol-4-yl}-4-[5-(trifluoromethyl)-1H-1,2,3-triazol-4-yl]pyridine]
- IC50 (Table 5): 100 to 1000 nM

Structure (SMILES): COc1ccc(CCn2cnc(-c3cc(-c4nn[nH]c4C(F)(F)F)ccn3)c2)cc1 [Example 93, 2-{1-[2-(4-methoxyphenyl)ethyl]-1H-imidazol-4-yl}-4-[5-(trifluoromethyl)-1H-1,2,3-triazol-4-yl]pyridine]
- IC50 (Table 5): ≤ 100 nM

Structure (SMILES): Clc1ccccc1-n1cnc(-c2cc3[nH]nnc3cn2)c1 [Example 50, 1-(2-chlorophenyl)-4-{1H-[1,2,3]triazolo[4,5-c]pyridin-6-yl}-1H-imidazole]
- IC50 [1]: ≤ 100 nM

Structure (SMILES): Fc1cc(F)c(CCn2cnc(-c3cc(-c4nn[nH]c4C(F)(F)F)ccn3)c2)c(F)c1 [Example 82, 4-[5-(trifluoromethyl)-1H-1,2,3-triazol-4-yl]-2-{1-[2-(2,4,6-trifluorophenyl)ethyl]-1H-imidazol-4-yl}pyridine]
- IC50 (Table 5): ≤ 100 nM

Structure (SMILES): Cc1ccc(CCn2cnc(-c3cc(-c4nn[nH]c4C(F)(F)F)ccn3)c2)cc1 [Example 91, 2-{1-[2-(4-methylphenyl)ethyl]-1H-imidazol-4-yl}-4-[5-(trifluoromethyl)-1H-1,2,3-triazol-4-yl]pyridine]
- IC50 (Table 5): ≤ 100 nM

Structure (SMILES): Clc1cccc(-n2cnc(-c3cc4[nH]nnc4cn3)c2)c1 [Example 51, 1-(3-chlorophenyl)-4-{1H-[1,2,3]triazolo[4,5-c]pyridin-6-yl}-1H-imidazole]
- IC50 [1]: 100 to 1000 nM

Structure (SMILES): Fc1ccc2c(c1)C(n1cnc(-c3cc(-c4nn[nH]c4C(F)(F)F)ccn3)c1)CC2 (stereo not drawn) [Example 85, 2-[1-(6-fluoro-2,3-dihydro-1H-inden-1-yl)-1H-imidazol-4-yl]-4-[5-(trifluoromethyl)-1H-1,2,3-triazol-4-yl]pyridine]
- IC50 (Table 5): ≤ 100 nM

Structure (SMILES): Cc1ccc(Cn2cnc(-c3cc(-c4nn[nH]c4C(F)(F)F)ccn3)c2)c(F)c1 [Example 71, 2-{1-[(2-fluoro-4-methylphenyl)methyl]-1H-imidazol-4-yl}-4-[5-(trifluoromethyl)-1H-1,2,3-triazol-4-yl]pyridine]
- IC50 (Table 5): ≤ 100 nM

Structure (SMILES): CC(C)C(c1ccccc1)n1cnc(-c2cc(-c3nn[nH]c3C(F)(F)F)ccn2)c1 (stereo not drawn) [Example 75, 2-[1-(2-methyl-1-phenylpropyl)-1H-imidazol-4-yl]-4-[5-(trifluoromethyl)-1H-1,2,3-triazol-4-yl]pyridine]
- IC50 (Table 5): 100 to 1000 nM

Structure (SMILES): FC(F)(F)c1[nH]nnc1-c1ccnc(-c2cn(CC3CCCc4ccccc43)cn2)c1 (stereo not drawn) [Example 58, 2-{1-[(1,2,3,4-tetrahydronaphthalen-1-yl)methyl]-1H-imidazol-4-yl}-4-[5-(trifluoromethyl)-1H-1,2,3-triazol-4-yl]pyridine]
- IC50 (Table 5): ≤ 100 nM
